Data: patent US6369251B1, “Method for purification of polyprenyl compounds” (Nikken Chemicals Co., Ltd., priority 1999, dated 2002)

Legend:
[1] = Determination of peroxide value by the British Pharmacopeia method (iodometric titration); type: physicochemical; details: sample after recrystallization; about 1 g sample, titration with sodium thiosulfate
Protocol: The results of purities and determined peroxide values of (2E, 4E, 6E, 10E)-3,7,11,15-tetramethyl-2,4,6,10,14-hexadecapentaenoic acid obtained in Example 1 and Reference Example 3 are shown in Table 1.
The determination of the peroxide values was performed by the method described in the British Pharmacopeia. About 1 g of each sample was accurately weighed in a stoppered Erlenmeyer flask, and the sample was added with chloroform (15 mL) and dissolved. The solution was added with acetic acid (20 mL), and the mixture was shaken gently. Air in the flask was sufficiently substituted with argon atmosphere, and the mixture was added with 1 mL of saturated potassium iodide solution prepared just before use, and the mixture was left stand for 10 minutes in a dark place. Then, the mixture was added with 30 mL of water and shaken vigorously. The liberated iodine was titrated with […] sodium thiosulfate solution (indicator: 2 mL of the starch test solution). The titration was terminated when the purplish red color of the solution disappeared. Correction was made by performing a blank test in the same manner.
The peroxide value was calculated by using the following equation.
Peroxide value (meq/kg)=10f(a−b)/Sampled weight (g) a: Titration volume (mL) of 0.01 mol/L Na2S2O3 solution b: Titration volume (mL) of 0.01 mol/L Na2S2O3 solution in the blank test f: Factor of 0.01 mol/L Na2S2O3 solution

[2] = test system: hepatic carcinoma; details: known from literature; cited from earlier work

Row | Peroxide value [1] | Compound | effect on recurrence of hepatic carcinoma [2]
1 | 3.0 meq/kg | CC(C)=CCC/C(C)=C/CC/C(C)=C/C=C/C(C)=C/C(=O)O [Reference Example 3, (2E, 4E, 6E, 10E)-3,7,11,15-tetramethyl-2,4,6,10,14-hexadecapentaenoic acid] | –
2 | 0 meq/kg | CC(C)=CCC/C(C)=C/CC/C(C)=C/C=C/C(C)=C/C(=O)O [Example 1, (2E, 4E, 6E, 10E)-3,7,11,15-tetramethyl-2,4,6,10,14-hexadecapentaenoic acid] | –
3 | – | CC(C)=CCC/C(C)=C/CC/C(C)=C/C=C/C(C)=C/C(=O)O [(2E, 4E, 6E, 10E)-3,7,11,15-Tetramethyl-2,4,6,10,14-hexadecapentaenoic acid] | suppressing effect on recurrence of hepatic carcinoma
